Results: patent US7371207B2 (Wyeth, priority 2002, dated 2008)
“Also recorded” adds a separate entry of the source.

Columns and labels:
[1] = system: gene expression in the kidney of mice expressing ΔAF1-ERα; assay: Real-time PCR of kidney gene expression in ERαERβKO or ERαKO mice expressing ΔAF1-ERα
Protocol: Kidney gene expression values were determined by real-time PCR for each individual animal and normalized for GAPDH expression. The mean expression level in vehicle-treated WT mice was defined as 1 for each gene. *p<0.01 for comparison to vehicle treated animals.
One week later, the animals were ovariectomized. Commencing the day after ovariectomy, each animal received a daily subcutaneous treatment with vehicle (50% DMSO, 50% phosphate buffered saline) or vehicle containing treatments for six weeks. Each group consisted of six or seven animals. Approximately 2 hours following the final treatment, the animals were euthanized with selected tissues frozen in liquid nitrogen for RNA analysis or on dry ice for histology.

[2] = system: gene expression in the kidney; assay: Real-time PCR of kidney gene expression in ovariectomized WT mice
Source text: FIGS. 5A-5B show a series of graphs showing expression levels for various genes. […] (B) Uterine wet weights (mg) and gene expression values (mean±SEM).
FIGS. 6A-6D show a series of bar graphs depicting relative expression levels for various genes.
(§1) One week later, the animals were ovariectomized.

[3] = system: gene expression in the kidney; assay: In situ hybridization of kidney, ovariectomized mice; type: in vivo, mouse; conditions: 20 μg/kg/day E2 six weeks, FIG. 3
Source text: No signal was detected with the corresponding sense probes.
Generally, in situ hybridization comprises the following major steps: (1) fixation of tissue or biological structure to be analyzed; (2) prehybridization treatment of the biological structure to increase accessibility of target nucleic acid, and to reduce nonspecific binding; (3) hybridization of the mixture of nucleic acids to the nucleic acid in the biological structure or tissue; (4) post-hybridization washes to remove nucleic acid fragments not bound in the hybridization, and (5) detection of the hybridized nucleic acid fragments. The probes used in such applications are typically labeled, for example, with radioisotopes or fluorescent reporters. Preferred probes are sufficiently long, for example, from about 50, 100, or 200 nucleotides to about 1000 or more nucleotides, to enable specific hybridization with the target nucleic acid(s) under stringent conditions.
as §1

[4] = system: gene expression in the pituitary; assay: GeneChip microarray survey of E2 regulated gene expression, pituitary; type: in vivo, mouse
Source text: as §1

[5] = system: gene expression in the uterus; assay: GeneChip microarray survey of E2 regulated gene expression, uterus; conditions: 20 μg/kg/day E2 s.c. six weeks; WT and ERβKO ovariectomized mice; number of genes
Protocol: (§2) FIG. 1 depicts a pattern analysis generated by a GeneChip microarray analysis. […] Two hours following the final dose, the mice were euthanized and 13 tissues removed for RNA preparation. Two independent studies were performed, with total RNA pooled from two groups of three animals for each condition. Gene expression was quantified by GeneChip microarrays using murine U74 sub A arrays. Data were analyzed for patterns indicating either ERα or ERβ dependent regulation as shown. […] The number of genes in each tissue that matched the theoretical induction (↑) or repression (↓) patterns for ERα or ERβ are indicated.
as §1
GeneChip—Total RNA was prepared separately from each individual organ by using Trizol (Invitrogen) followed by subsequent repurification on Rneasy columns (Qiagen). In general, two pools of RNA were created using equal amounts of RNA from three mice. For small organs such as pituitary, an equal amount of RNA from six animals was combined.
(§3) Target Preparation and Array Hybridization—Total RNA was used to generate biotin labeled cRNA target as described (8) which was hybridized to the murine MG_U74Av2 probe arrays (Affymetrix, Santa Clara, Calif.) for 16 h at 45° C. Eleven biotin-labeled cRNAs at defined concentration were spiked into each hybridization and used to convert average difference values to frequencies expressed as parts per million.
The resulting data set was queried for genes whose regulation was dependent on ERα or ERβ.

[6] = system: gene expression in bone marrow; assay: GeneChip microarray survey of E2 regulated gene expression, bone marrow; type: in vivo, mouse; conditions: 20 μg/kg/day E2 s.c. six weeks; WT and ERβKO ovariectomized mice; number of genes
Protocol: as §2, §1
GeneChip—Total RNA was prepared separately from each individual organ by using Trizol (Invitrogen) followed by subsequent repurification on Rneasy columns (Qiagen). In general, two pools of RNA were created using equal amounts of RNA from three mice. […]
as §3, with “million. […]” for “million.”

[7] = 10 μg/kg/day E2 or 5 mg/kg/day tamoxifen, 6 weeks, FIG. 8
[8] = 20 μg/kg/day E2 s.c. six weeks, WT and ERβKO ovariectomized mice, number of genes

**Q.** Which “CYP7B1 expression in kidney, mice expressing ΔAF1-ERα (ERαERβKO or ERαKO)” value ([1]; 10 μg/kg/day E2, 6 weeks, FIG. 8) does the source give for `C[C@]12CC[C@@H]3c4ccc(O)cc4CC[C@H]3[C@@H]1CC[C@@H]2O` [E2, 17β-estradiol] here?
**A.** increased CYP7B1 expression

**Q.** What about the “BCAT1 expression in kidney, ERαERβKO mice” value [1, 7] of the same molecule?
**A.** stimulated BCAT1 expression

**Q.** And the “TF expression in kidney, ERαERβKO mice (express only ΔAF1-ERα)” value [1, 7]?
**A.** Neither compound could induce TF expression

**Q.** What about the “mechanism of induction of BCAT1 in kidney (ERα AF1 or AF2)” value ([1]; WT versus ΔAF1-ERα mice, E2 versus tamoxifen) of the same molecule?
**A.** either AF1 or AF2 mechanisms; also recorded: both AF1 and AF2 mechanisms

**Q.** And the “BCAT1 expression in kidney, WT mice” value [2, 7]?
**A.** induced

**Q.** And the “CYP7B1 expression in kidney, WT mice” value [2, 7]?
**A.** induced

**Q.** And the “TF expression in kidney, WT mice” value [2, 7]?
**A.** induced

**Q.** And the “ED50 for stimulation of CYP7B1, TF, STAT5A, and BCAT1 in the kidney” value ([2]; ovariectomized WT mice, various doses s.c. six weeks, FIG. 5)?
**A.** about 3 μg/kg/day

**Q.** What about the “localization of induction of CYP7B1, TF, STAT5A and GADD45G in mouse kidney” value [3] of the same molecule?
**A.** induction of gene expression occurred in the juxtamedullary region of the kidney

**Q.** What about the “ERα pattern regulations in pituitary, number of inductions” value [4, 8] of the same molecule?
**A.** 56

**Q.** And the “ERα pattern regulations in pituitary, number of repressions” value [4, 8]?
**A.** 30

**Q.** And the “Kallikrein-9 expression in pituitary” value ([4]; mouse, in vivo)?
**A.** Induced

**Q.** What about the “ERα pattern regulations in uterus, number of inductions” value [5] of the same molecule?
**A.** 514

**Q.** And the “ERα pattern regulations in uterus, number of repressions” value [5]?
**A.** 19

**Q.** What about the “ERα pattern regulations in bone marrow, number of inductions” value [6] of the same molecule?
**A.** 3

**Q.** What about the “ERα pattern regulations in bone marrow, number of repressions” value [6] of the same molecule?
**A.** 3
